Assay [1] deals with IRAK4 auto-phosphorylation (Homo sapiens (Human), UniProt Q9NWZ3). Kind of assay: IRAK4 phosphorylation cell assay in IL-1β-stimulated Karpas-299 cells. Format: cell-based. The conditions noted are these: IL-1β 22.7 ng/mL, pIRAK4 (Thr345/Ser346), geometric mean of at least 2 experiments. On the procedure:
IRAK4 Phosphorylation Cell Assay
The activation of IRAK4 by TLR or IL-1R ligands leads to IRAK4 auto-phosphorylation, which can be prevented by IRAK4 kinase inhibitors. The effect of IRAK4 inhibitor compounds on IRAK4 auto-phosphorylation was assessed in IL-1β-stimulated Karpas-299 cells as a measurement of cellular potency. Karpas-299 cells were cultured in RPMI 1640 (Gibco 61870-010) containing 10% FBS (Gibco #10270). Cells were plated at 2×10^4 cells per well in poly-D-lysine coated 384 well plates (Corning #356663) to which compounds had been added at various concentrations (10 point half log dose response with a final top concentration of 30 μM) using an Echo 655 (Labcyte Inc). Cells were centrifuged (250 g, 4 mins), incubated at 37° C. for 1 h, then stimulated with 22.7 ng/mL recombinant IL-1β (R&D Systems, #201-LB-025) at 37° C. for 10 mins, followed by fixation in 4% paraformaldehyde for 10 mins and permeabilization in ice-cold 70% MeOH for 30 mins. Cells were washed twice with phosphate-buffered saline (PBS) on a BlueWasher (BlueCatBio) then blocked with PBS containing 10% FBS for 20 mins. Blocking solution was removed with a BlueWasher and cells were stained with anti-pIRAK4 (Thr345/Ser346) (CST, #11927, 1:400) in blocking buffer with 0.05% Tween-20 for 1 h, then washed twice with PBS containing 0.05% Tween-20 on a BlueWasher, followed by staining with a Alexa 647-conjugated secondary anti-rabbit IgG antibody (CST, #4414, 1:2,000) and Hoechst 33342 (Sigma, 1:2,000) in blocking buffer with 0.05% Tween-20 for 30 mins. Finally, the cells were washed twice with PBS containing 0.05% Tween-20 and imaged on an ImageXpress Micro (Molecular Devices) with a 10× air objective using the appropriate filters. Images were analysed in Columbus (PerkinElmer) and the fluorescence intensity per cell from the secondary antibody was quantified. The quantified data were analysed in Genedata Screener 15 (Genedata AG). […] IC50 values are the geometric mean of at least 2 experiments.

In assay [2] the target is human recombinant IRAK4 protein (Homo sapiens (Human), UniProt Q9NWZ3). Description: IRAK4 enzyme assay (mass spectrometry readout). Format: biochemical. The conditions noted are these: 3 mM ATP, 0.2 nM enzyme; geometric mean of at least n=2, * single experiment. The method, then:
Potency of IRAK4 Inhibitor Compounds in IRAK4 Enzyme Assay
The inhibitory activity of compounds against IRAK4 were determined in an enzymatic assay using mass spectrometry readout. Ten point half-log compound concentration response curves, with a top concentration of 1 μM or 10 μM, were generated from 10 mM stocks of compound solubilized in DMSO using an Echo 655 (Labcyte Inc) and added to 384 well assay plates (Greiner #781280). To the assay plates, 10 μL of human recombinant IRAK4 protein (Life Technologies #PV4002) diluted to a final concentration of 0.2 nM in assay buffer (50 mM Tris-HCl pH 7.4, 10 mM MgCl, 5 mM glutathione, 0.01% BSA, 3 mM ATP) was added. The enzyme was incubated with the compounds at room temperature for 15 minutes before a peptide substrate ([…], Innovagen custom synthesis, 10 mM in DMSO) was added to each well to a final concentration of 10 μM using an Echo 655 (Labcyte Inc). After two hours at room temperature, the reaction was stopped with 90 μL of 0.4% formic acid (Merck #33015). The unphosphorylated and phosphorylated peptide were measured by LC-MS/MS on a Waters TQ-S mass spectrometer. Peaks were integrated using the TargetLynx software and the ratios between phosphorylated and unphosphorylated peptides were calculated. Curves were fitted and compound potencies determined in Genedata Screener 15 (Genedata AG). Data presented are the geometric mean of at least n=2, or as denoted by an * are obtained from a single experiment.

Sequence of human recombinant IRAK4 protein (Q9NWZ3 whole entry): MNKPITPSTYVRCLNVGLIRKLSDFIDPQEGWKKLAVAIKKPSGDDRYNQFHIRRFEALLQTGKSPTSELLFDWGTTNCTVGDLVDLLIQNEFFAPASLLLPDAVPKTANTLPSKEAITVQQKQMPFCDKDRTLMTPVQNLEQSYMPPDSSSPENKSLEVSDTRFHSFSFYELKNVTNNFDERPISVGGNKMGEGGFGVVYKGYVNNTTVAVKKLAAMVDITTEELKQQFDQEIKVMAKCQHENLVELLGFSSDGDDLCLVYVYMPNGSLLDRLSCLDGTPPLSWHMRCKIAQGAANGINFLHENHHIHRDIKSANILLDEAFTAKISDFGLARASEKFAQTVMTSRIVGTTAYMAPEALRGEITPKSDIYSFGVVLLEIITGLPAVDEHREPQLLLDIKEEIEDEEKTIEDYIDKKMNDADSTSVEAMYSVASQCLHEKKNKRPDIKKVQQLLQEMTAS
Sequence of IRAK4 auto-phosphorylation (Q9NWZ3 whole entry): as above

What is called IC50 is the point on the concentration scale where inhibition reaches its midpoint. On to “6-Cyclopropoxy-2-((1s,4s)-4-(N-methylacetamido)cyclohexyl)-N-(pyrazolo[1,5-a]pyrimidin-3-yl)-2H-indazole-5-carboxamide [Example 32]”, for which the IC50 in assay [1] is 257 nM; in assay [2], 10.6 nM. For the compound `COc1cc2nn([C@H]3CC[C@@H](O)C[C@@H]3C)cc2cc1C(=O)Nc1cnn2cccnc12` (relative stereo) [Example 40], the half-maximal inhibitory concentration (IC50) in assay [1] amounted to 158 nM. `COc1cc2nn([C@H]3CC[C@@H](O)C[C@@H]3C)cc2cc1C(=O)Nc1cnn2cccnc12` (relative stereo) [Example 41]: the results for the IC50 in assay [1] and in assay [2] were 331 nM and 14.3 nM, respectively. In the case of `C[C@H]1C[C@H](O)CC[C@@H]1n1cc2cc(C(=O)Nc3cnn4cccnc34)c(OC3CC3)cc2n1` (relative stereo) [Example 42, rel-6-Cyclopropoxy-2-(1S,2S,4R)-4-hydroxy-2-methylcyclohexyl)-N-(pyrazolo[1,5-a]pyrimidin-3-yl)-2H-indazole-5-carboxamide], 89 nM corresponded to half-maximal inhibition in assay [1] (IC50). With `C[C@H]1C[C@H](O)CC[C@@H]1n1cc2cc(C(=O)Nc3cnn4cccnc34)c(OC3CC3)cc2n1` (relative stereo) [Example 43, rel-6-Cyclopropoxy-2-(1S,2S,4R)-4-hydroxy-2-methylcyclohexyl)-N-(pyrazolo[1,5-a]pyrimidin-3-yl)-2H-indazole-5-carboxamide], the 50% inhibitory concentration (IC50) in assay [1] was 101 nM; in assay [2], 1.8 nM. In the case of `C[C@@]1(O)CCC[C@H](n2cc3cc(C(=O)Nc4cnn5cccnc45)c(OC4CC4)cc3n2)C1` (relative stereo) [Example 54, rel-6-cyclopropoxy-2-(1S,3R)-3-hydroxy-3-methylcyclohexyl)-N-(pyrazolo[1,5-a]pyrimidin-3-yl)-2H-indazole-5-carboxamide], the IC50 in assay [1] came to 25 nM.

As to `C[C@@]1(O)CCC[C@H](n2cc3cc(C(=O)Nc4cnn5cccnc45)c(OC4CC4)cc3n2)C1` (relative stereo) [Example 55, rel-6-cyclopropoxy-2-(1S,3R)-3-hydroxy-3-methylcyclohexyl)-N-(pyrazolo[1,5-a]pyrimidin-3-yl)-2H-indazole-5-carboxamide], the IC50 in assay [1] worked out at 51 nM; in assay [2], 0.7 nM. `COc1cc2nn([C@@H]3CC[C@]4(CC(=O)N(C)C4)C[C@H]3C)cc2cc1C(=O)Nc1cnc2cccnn12` (relative stereo) [Example 70, rel-2-(5R,7R,8R)-2,7-Dimethyl-3-oxo-2-azaspiro[4.5]decan-8-yl)-N-(imidazo[1,2-b]pyridazin-3-yl)-6-methoxy-2H-indazole-5-carboxamide or rel-2-(5R,7S,8S)-2,7-Dimethyl-3-oxo-2-azaspiro[4.5]decan-8-yl)-N-(imidazo[1,2-b]pyridazin-3-yl)-6-methoxy-2H-indazole-5-carboxamide]: the IC50 turned out to be 9 nM in assay [1] and 0.4 nM in assay [2].

With `COc1cc2nn([C@@H]3CC[C@]4(CC(=O)N(C)C4)C[C@H]3C)cc2cc1C(=O)Nc1cnc2cccnn12` (relative stereo) [Example 71, rel-2-(5R,7R,8R)-2,7-Dimethyl-3-oxo-2-azaspiro[4.5]decan-8-yl)-N-(imidazo[1,2-b]pyridazin-3-yl)-6-methoxy-2H-indazole-5-carboxamide or rel-2-(5R,7S,8S)-2,7-Dimethyl-3-oxo-2-azaspiro[4.5]decan-8-yl)-N-(imidazo[1,2-b]pyridazin-3-yl)-6-methoxy-2H-indazole-5-carboxamide], the figures for the IC50 in assay [1] and in assay [2] were 30 nM and 1.9 nM, respectively. For the compound `COc1cc2nn([C@@H]3CC[C@]4(CC(=O)N(C)C4)C[C@H]3C)cc2cc1C(=O)Nc1cnc2cccnn12` (relative stereo) [Example 72, rel-2-(5R,7R,8R)-2,7-Dimethyl-3-oxo-2-azaspiro[4.5]decan-8-yl)-N-(imidazo[1,2-b]pyridazin-3-yl)-6-methoxy-2H-indazole-5-carboxamide or rel-2-(5R,7S,8S)-2,7-Dimethyl-3-oxo-2-azaspiro[4.5]decan-8-yl)-N-(imidazo[1,2-b]pyridazin-3-yl)-6-methoxy-2H-indazole-5-carboxamide], the IC50 in assay [1] worked out at 7 nM; in assay [2], 0.4 nM.

In the case of `COc1cc2nn([C@@H]3CC[C@]4(CC(=O)N(C)C4)C[C@H]3C)cc2cc1C(=O)Nc1cnc2cccnn12` (relative stereo) [Example 73, rel-2-(5R,7R,8R)-2,7-Dimethyl-3-oxo-2-azaspiro[4.5]decan-8-yl)-N-(imidazo[1,2-b]pyridazin-3-yl)-6-methoxy-2H-indazole-5-carboxamide or rel-2-(5R,7S,8S)-2,7-Dimethyl-3-oxo-2-azaspiro[4.5]decan-8-yl)-N-(imidazo[1,2-b]pyridazin-3-yl)-6-methoxy-2H-indazole-5-carboxamide], the IC50 stood at 57 nM in assay [1] and 3.2 nM in assay [2].

Consider `COc1cc2nn([C@H]3CCC[C@H](O)[C@@H]3C)cc2cc1C(=O)Nc1cnc2cccnn12` (relative stereo) [Example 106, rel-2-(1S,2R,3S)-3-Hydroxy-2-methylcyclohexyl)-N-(imidazo[1,2-b]pyridazin-3-yl)-6-methoxy-2H-indazole-5-carboxamide], for which the IC50 in assay [1] worked out at 15 nM. As for `COc1cc2nn([C@H]3CCC[C@H](O)[C@@H]3C)cc2cc1C(=O)Nc1cnc2cccnn12` (relative stereo) [Example 107, rel-2-(1S,2R,3S)-3-Hydroxy-2-methylcyclohexyl)-N-(imidazo[1,2-b]pyridazin-3-yl)-6-methoxy-2H-indazole-5-carboxamide], the IC50 is 24 nM in assay [1] and 0.9 nM in assay [2]. With `COc1cc2nn([C@H]3CC[C@H](N(C)C(=O)[C@@H]4CC[C@@H](O)C4)CC3)cc2cc1C(=O)Nc1cnn2cccnc12` (relative stereo) [Example 112], the IC50 is 21 nM in assay [1] and 0.7 nM in assay [2].

With `COc1cc2nn([C@H]3CC[C@H](N(C)C(=O)[C@@H]4CC[C@@H](O)C4)CC3)cc2cc1C(=O)Nc1cnn2cccnc12` (relative stereo) [Example 113], the IC50 in assay [1] amounted to 23 nM; in assay [2], 0.7 nM. As for `COc1cc2nn([C@H]3CC[C@H](N(C)C(=O)[C@@H]4CC[C@H](O)C4)CC3)cc2cc1C(=O)Nc1cnn2cccnc12` (relative stereo) [Example 114], the values for the IC50 in assay [1] and in assay [2] were 16 nM and 0.7 nM, respectively. As to `COc1cc2nn([C@H]3CC[C@H](N(C)C(=O)[C@@H]4CC[C@H](O)C4)CC3)cc2cc1C(=O)Nc1cnn2cccnc12` (relative stereo) [Example 115], the IC50 in assay [1] came out at 20 nM. As for `COc1cc2nn([C@@H]3CC[C@]4(CCC(=O)N4C)C[C@H]3C)cc2cc1C(=O)Nc1cnc2cccnn12` (relative stereo) [Example 123, rel-2-(5S,7R,8R)-1,7-Dimethyl-2-oxo-1-azaspiro[4.5]decan-8-yl)-N-(imidazo[1,2-b]pyridazin-3-yl)-6-methoxy-2H-indazole-5-carboxamide], the IC50 in assay [2] came out at 3 nM. For the compound `COc1cc2nn([C@@H]3CC[C@H](O)[C@H](C)C3)cc2cc1C(=O)Nc1cnc2cccnn12` (single isomer, unassigned) [Example 76], the IC50 in assay [2] came out at 2.3 nM. In the case of `COc1cc2nn([C@H]3CC[C@H](N(C)C(=O)[C@H](C)O)CC3)cc2cc1C(=O)Nc1cnc2cccnn12` [Example 94, 2-((1S,4r)-4-((S)-2-Hydroxy-N-methylpropanamido)cyclohexyl)-N-(imidazo[1,2-b]pyridazin-3-yl)-6-methoxy-2H-indazole-5-carboxamide], in assay [1], the IC50 came to 10 nM.
